# Laboratory results taken from the supplement of paper PMC10307832.
# How the values were obtained:
# Assay in all cases: relative viability (nuclei count vs DMSO), 5 days (fraction); higher = more cells survive
# [1] = compound: O=C(/C=C/c1cccnc1)NCCCCC1CCN(C(=O)c2ccccc2)CC1 [Daporinad] + Nc1nc2[nH]cc(CCc3ccc(C(=O)N[C@@H](CCC(=O)O)C(=O)O)cc3)c2c(=O)[nH]1 [Pemetrexed] (partner 0.2 µM)
# Summary of the method: (§1)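 Lung cancer cell lines were pin-tool dosed in 1536-well plates on the day after seeding, with either a lone drug or a fixed anchor-drug dose plus five library-drug doses (not always all listed) in √10 steps. Nuclei were counted on 4× images after 5 days. Relative viability is the ratio of treated-well to vehicle-well nuclei counts, with each value a median of duplicate plates.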
# [2] = compound: O=C(/C=C/c1cccnc1)NCCCCC1CCN(C(=O)c2ccccc2)CC1 [Daporinad] + CS(=O)(=O)N1CCN(Cc2cc3nc(-c4cccc5[nH]ncc45)nc(N4CCOCC4)c3s2)CC1 [Pictilisib] (partner 1 µM)
# Summary of the method: as §1
# [3] = compound: COc1cc(Nc2ncc(F)c(Nc3ccc4c(n3)NC(=O)C(C)(C)O4)n2)cc(OC)c1OC [R406] + Cc1nc(NC(=O)N2CCC[C@H]2C(N)=O)sc1-c1ccnc(C(C)(C)C(F)(F)F)c1 [Alpelisib] (partner 2 µM)
# Summary of the method: as §1
# [4] = compound: COc1cc(Nc2ncc(F)c(Nc3ccc4c(n3)NC(=O)C(C)(C)O4)n2)cc(OC)c1OC [R406] + CC(=O)c1c(C)c2cnc(Nc3ccc(N4CCNCC4)cn3)nc2n(C2CCCC2)c1=O [Palbociclib] (partner 0.5 µM)
# Summary of the method: as §1
Cell Line,relative viability ([1]; first compound 0.0005 µM),relative viability ([1]; first compound 0.001581 µM),relative viability ([1]; first compound 0.005 µM),relative viability ([1]; first compound 0.01581 µM),relative viability ([2]; first compound 0.0005 µM),relative viability ([2]; first compound 0.001581 µM),relative viability ([2]; first compound 0.005 µM),relative viability ([2]; first compound 0.01581 µM),relative viability ([3]; first compound 0.08 µM),relative viability ([3]; first compound 0.253 µM),relative viability ([3]; first compound 0.8 µM),relative viability ([3]; first compound 2.53 µM),relative viability ([3]; first compound 8 µM),relative viability ([4]; first compound 0.08 µM),relative viability ([4]; first compound 0.253 µM),relative viability ([4]; first compound 0.8 µM),relative viability ([4]; first compound 2.53 µM),relative viability ([4]; first compound 8 µM)
201T,0.333,0.315,0.313,0.34,0.657,0.675,0.682,0.635,1.03,1.02,1.04,0.979,0.86,0.375,0.399,0.349,0.394,0.285
A549,–,–,–,–,0.548,0.529,0.61,0.469,0.703,0.932,0.811,0.646,0.164,–,–,–,–,–
A-427,0.981,1.02,0.937,0.662,0.559,0.79,0.684,0.716,1.14,1.17,1.12,0.928,0.843,0.516,0.596,0.575,0.477,0.446
ABC-1,–,–,–,–,0.652,0.934,0.734,0.743,1.3,0.963,1.29,0.821,0.518,0.777,0.784,0.48,0.653,0.492
BEN,0.726,0.792,0.953,0.935,0.624,0.62,0.597,0.776,1.08,1.3,1.07,0.99,0.766,0.439,0.502,0.495,0.561,0.422
CAL-12T,1.09,1.21,0.502,0.314,0.305,–,0.442,0.494,1.3,1.54,1.83,1.03,0.923,0.425,0.612,0.549,0.142,0.158
COR-L23,0.194,0.198,0.208,0.196,0.777,0.952,0.721,0.368,0.725,0.947,0.828,0.553,0.388,0.224,0.346,0.342,0.166,0.157
COR-L 105,1.21,1,1.18,1.02,0.348,0.364,0.36,0.537,1.26,1.01,1.4,0.757,0.641,0.374,0.386,0.39,0.316,0.33
Calu-6,–,–,–,–,0.917,0.907,0.81,0.421,1.01,1.14,1.13,0.66,0.389,–,–,–,–,–
ChaGo-K-1,0.255,0.248,0.248,0.239,0.774,0.64,0.702,0.578,–,–,–,–,–,0.768,0.98,1.02,0.928,0.706
EBC-1,–,–,–,–,0.335,0.43,0.37,0.469,0.826,0.969,1.03,0.606,0.386,–,–,–,–,–
EKVX,0.344,0.468,0.389,0.343,0.478,0.432,0.412,0.464,0.928,0.992,1.06,0.77,0.635,0.362,0.417,0.373,0.333,0.315
EMC-BAC-2,0.428,0.482,0.421,0.388,0.628,0.567,0.485,0.319,0.773,0.786,0.801,0.628,0.384,0.518,0.538,0.508,0.44,0.378
EPLC-272H,0.327,0.339,0.312,0.413,0.295,0.382,0.387,0.436,0.989,1.2,0.969,0.607,0.567,0.329,0.337,0.326,0.246,0.303
H3255,0.573,0.561,0.616,0.638,0.46,0.488,0.507,0.469,0.693,0.746,0.623,0.511,0.418,0.295,0.331,0.336,0.358,0.284
HARA,0.24,0.258,0.227,0.276,0.329,0.568,0.436,0.371,0.801,0.721,0.879,0.637,0.249,0.334,0.198,0.223,0.264,0.132
HCC-15,0.225,0.22,0.237,0.199,0.664,0.8,0.79,0.856,0.859,0.887,0.981,–,0.753,0.818,0.827,0.801,0.728,0.594
HCC-44,0.623,0.593,0.677,0.765,0.643,0.658,0.706,0.657,0.787,1,0.883,0.739,0.262,0.945,0.982,0.858,1.02,1.16

Cell Line,relative viability ([1]; first compound 0.0005 µM),relative viability ([1]; first compound 0.001581 µM),relative viability ([1]; first compound 0.005 µM),relative viability ([1]; first compound 0.01581 µM),relative viability ([2]; first compound 0.0005 µM),relative viability ([2]; first compound 0.001581 µM),relative viability ([2]; first compound 0.005 µM),relative viability ([2]; first compound 0.01581 µM),relative viability ([3]; first compound 0.08 µM),relative viability ([3]; first compound 0.253 µM),relative viability ([3]; first compound 0.8 µM),relative viability ([3]; first compound 2.53 µM),relative viability ([3]; first compound 8 µM),relative viability ([4]; first compound 0.08 µM),relative viability ([4]; first compound 0.253 µM),relative viability ([4]; first compound 0.8 µM),relative viability ([4]; first compound 2.53 µM),relative viability ([4]; first compound 8 µM)
HCC-78,0.869,0.897,0.798,0.874,0.217,0.145,0.166,0.259,0.313,0.33,0.377,0.295,0.214,0.457,0.525,0.501,0.467,0.427
HCC-366,0.187,–,0.152,0.104,0.14,0.167,0.152,0.201,0.41,0.439,0.441,–,0.0784,0.36,0.465,0.387,0.262,0.0616
HCC-827,0.295,0.268,0.281,0.256,1.12,0.994,1.23,1.01,1.04,0.903,1.03,0.827,0.282,0.508,0.538,0.517,0.422,0.373
HOP-62,0.297,0.32,0.284,0.282,–,0.846,0.702,0.668,0.779,1.04,0.886,1.09,0.913,0.426,0.533,0.397,0.456,0.378
IA-LM,–,–,–,–,0.357,0.321,0.308,0.307,0.888,0.999,1,0.962,0.81,–,–,–,–,–
LC-2-ad,0.263,0.27,0.285,0.256,0.389,0.514,0.64,0.675,0.769,0.802,0.909,0.329,0.0848,0.414,0.571,0.501,0.408,0.277
LCLC-97TM1,0.17,0.2,0.165,0.185,0.2,0.185,0.284,0.26,0.209,0.265,0.267,0.202,0.256,0.34,0.218,0.273,0.185,0.217
LCLC-103H,0.497,0.453,0.508,0.471,0.693,0.649,0.619,0.606,0.906,1.1,0.901,0.901,0.741,0.45,0.507,0.529,0.46,0.319
NCI-H522,0.983,1.3,1.09,0.668,–,–,–,–,–,–,–,–,–,1.11,0.916,0.969,0.899,0.719
NCI-H596,0.432,0.457,0.525,0.36,0.402,0.371,0.421,0.448,0.486,0.53,0.621,0.387,0.183,–,–,–,–,–
NCI-H727,–,–,–,–,0.359,0.354,0.414,0.284,0.56,0.574,0.61,0.497,0.245,0.621,0.702,0.752,0.652,0.609
NCI-H1299,–,–,–,–,0.736,0.809,0.839,0.739,1,1.02,1.11,1.12,1.09,–,–,–,–,–
NCI-H1563,0.722,0.655,0.873,0.641,0.639,0.642,0.605,0.701,0.938,0.996,0.924,0.682,0.634,–,–,–,–,–
NCI-H1648,0.596,0.617,0.843,0.769,–,–,–,–,–,–,–,–,–,0.276,0.275,0.301,0.296,0.303
NCI-H1650,0.426,0.395,0.458,0.391,0.503,0.727,0.715,0.733,–,–,–,–,–,0.337,0.345,0.396,0.117,0.0985
NCI-H1703,–,–,–,–,0.236,0.283,0.259,0.265,0.307,0.281,0.368,0.183,0.173,–,–,–,–,–
NCI-H2342,0.782,0.739,0.862,0.819,–,–,–,–,–,–,–,–,–,0.518,0.508,0.504,0.474,0.509
SW 900,0.486,–,0.506,0.496,–,–,–,–,–,–,–,–,–,0.471,0.559,0.518,0.617,0.096
